From patent publication US20240315993A1, “ANTIPARASITIC COMPOUNDS” (Intervet Inc., priority 2021, published 2024)

Assays:
[1] = system: Adult fleas (Ctenocephalides felis); test: Flea feeding assay; conditions: 48 h, read-out: flea inhibition (% of dead+damaged fleas)
Experimental: Adult fleas (Ctenocephalides felis) of defined age were fed on artificial membranes with blood spiked with declining concentrations of a test compound (dissolved in a DMSO-emulsifier-blood mixture). After approximately 48 hours of continuous feeding, flea inhibition (i.e., % of dead+damaged fleas per test concentration) was assessed. The vitality of used parasites was confirmed in negative control groups (i.e., an untreated control and a solvent control).

[2] = system: juvenile soft ticks (Ornithodoros moubata); test: Guinea pig - efficacy against argaside tick; type: in vivo
Procedure, shortened: (§1)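 Guinea pigs given 5 mg/kg test compound orally (gavage) or s.c. in 10% DMF/emulsifier plus 90% water for injection, with local co-infestations of Ornithodoros moubata juveniles and Cimex lectularius at several post-treatment times. Engorged parasites scored dead/damaged about 24 h after collection; % inhibition versus pretreatment baseline by modified Schneider-Orelli formula.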

[3] = system: Ctenocephalides felis fleas; test: Dog - efficacy against fleas; type: in vivo; conditions: for therapeutic efficacy against fleas (active = efficacy ≥80 percent): D2
Experimental: (§2) Beagle dogs were infested (whole body) with 80 Ctenocephalides felis fleas and 50 Rhipicephalus sanguineus or Haemaphysalis elliptica ticks (sex ratio 1:1) two days before the treatment day (Day 0), and repeatedly thereafter. Dogs of treatment groups were treated with 10 mg/kg bodyweight of a test compound orally (compound weighed in gelatin capsule), topically (spot-on, DMA 92%/DEET 8%) or subcutaneously (PEG 200 90%/water for injection 10%). Dogs of the negative control group received only an empty gelatin capsule orally and the spot-on formulation excipients topically.
(§3) Compounds with efficacy ≥80 percent were found active.

Rhipicephalus microplus = test: Cattle - efficacy against one-host tick; type: in vivo
Procedure, shortened: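 Cattle infested whole-body with up to 3000 R. microplus larvae two or three times weekly around Day 0, then given 1 mg/kg subcutaneously or topically (spray or pour-on); controls got excipients only. Engorged females dropping were counted daily; efficacy by ADEQ per WAAVP guidelines, onset/duration as first/last day ≥80%.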

[4] = system: Fly larvae I (Lucilia cuprina); test: Fly larvae contact/feeding assay; conditions: 48 h, read-out: Inhibition of fly larvae development
Experimental: Fly larvae I (Lucilia cuprina) were grown in medium spiked with declining concentrations of a test compound (dissolved in a DMSO-emulsifier-deionized water mixture). Inhibition of fly larvae development (%) was assessed after approximately 48 hours of continuous exposure. The vitality of used parasites was confirmed in negative control groups (i.e., an untreated control and a solvent control).

[5] = system: Copepodids (juvenile sea lice stage of Lepeophtheirus salmonis); test: Juvenile sea lice contact assay; conditions: Lepeophtheirus salmonis, 24 h, read-out: Sea lice inhibition (% of dead+damaged copepodids)
Experimental: Copepodids (juvenile sea lice stage of Lepeophtheirus salmonis) were exposed to seawater spiked with declining concentrations of a test compound (dissolved in a DMSO sea-water mixture). Sea lice inhibition (% of dead+damaged copepodids) was assessed after approximately 24 hours of continuous exposure. The vitality of used parasites was confirmed in a negative (solvent) control group.

[6] = system: Tick nymphs (stage III, Ornithodoros moubata); test: Tick feeding assay; conditions: read-out: Tick inhibition (% of damaged+dead ticks at molting-assessment)
Experimental: Tick nymphs (stage III, Ornithodoros moubata) were fed on artificial membranes with blood spiked with declining concentrations of a test compound (dissolved in a DMSO-emulsifier-blood mixture). Fed nymphs were incubated for around 2-3 weeks to enable tick molting into the next stage. Tick inhibition (i.e, % of damaged+dead ticks at molting-assessment per test concentration) was assessed. The vitality of used parasites was confirmed in negative control groups (i.e., an untreated control and a solvent control).

[7] = system: Mobile stages of sea lice (pre-adults, adults of Lepeophtheirus salmonis); test: Adult sea lice contact assay; conditions: read-out: EC50 (sea lice inhibition, dead+damaged)
Experimental: Mobile stages of sea lice (i.e., pre-adults, adults of Lepeophtheirus salmonis) were exposed to seawater spiked with declining concentrations of a test compound (dissolved in a PEG sea-water mixture). Sea lice inhibition (% of dead+damaged sea lice) was assessed after approximately 1 and 24 hours of continuous exposure in comparison to a negative (solvent) control group.

[8] = system: Rhipicephalus microplus tick larvae; test: Tick larvae contact assay; conditions: read-out: Tick inhibition (% of damage+dead ticks)
Experimental: Tick larvae (Rhipicephalus microplus) were immersed for approximately 3 minutes in declining concentrations of a test compound (dissolved in a DMSO-emulsifier-deionized water mixture). Tick inhibition (% of damage+dead ticks per test concentration) was assessed approximately 24 hours after contact exposure. The vitality of used parasites was confirmed in negative control groups (i.e. an untreated control and a solvent control).

[9] = system: bed bugs (Cimex lectularius); test: Guinea pig - efficacy against bed bug; type: in vivo; conditions: for effective to control bed bugs: 5 mg/kg
Procedure, shortened: as §1

[10] = system: Rhipicephalus sanguineus or Haemaphysalis elliptica ticks; test: Dog - efficacy against ticks; type: in vivo; conditions: for therapeutic efficacy against ticks (active = efficacy ≥80 percent): D2
Experimental: as §2, §3

[11] = 5 mg/kg subcutaneous, after 7 days
[12] = 5 mg/kg subcutaneous, after 10 days
[13] = 5 mg/kg subcutaneous, after 14 days
[14] = 5 mg/kg subcutaneous, after 17 days
[15] = 1 mg/kg topical (Compound 4: spray solution; others: DMA 92%/DEET 8% pour-on)

Structure (SMILES): O=C(Nc1ccc(F)cc1)c1cc(NC(=O)[C@H]2[C@H](c3cc(Cl)cc(Cl)c3)C2(Cl)Cl)ccc1F (racemic) [Compound 4]
- inhibition at 1 ppm [1]: 80%
- activity against tick nymphs (≥80% inhibition, killed+damaged) ([2]; 5 mg/kg oral, Day 0): immediate activity
- activity against tick nymphs (≥80% inhibition, killed+damaged) ([2]; 5 mg/kg oral, after 7 days): activity
- activity against tick nymphs (≥80% inhibition, killed+damaged) ([2]; 5 mg/kg oral, after 10 days): activity
- activity against tick nymphs (≥80% inhibition, killed+damaged) ([2]; 5 mg/kg oral, after 14 days): activity
- activity against tick nymphs (≥80% inhibition, killed+damaged) ([2]; 5 mg/kg subcutaneous, Day 0): immediate activity
- activity against tick nymphs (≥80% inhibition, killed+damaged) [2, 11]: activity
- activity against tick nymphs (≥80% inhibition, killed+damaged) [2, 12]: activity
- activity against tick nymphs (≥80% inhibition, killed+damaged) [2, 13]: activity
- activity against tick nymphs (≥80% inhibition, killed+damaged) [2, 14]: activity
- effective to control ticks ([2]; 5 mg/kg, at least until Day 10, both administration routes (oral, subcutaneous)): 100%
- effective to control ticks ([2]; 5 mg/kg, for at least one week, both administration routes): 100%
- duration of efficacy, subcutaneous compared with oral administration ([2]; 5 mg/kg, ticks and bed bugs): longer duration of efficacy
- efficacy against fleas in dogs (conclusion) ([3]; 10 mg/kg): therapeutic efficacy
- therapeutic efficacy against fleas (active = efficacy ≥80 percent) ([3]; 10 mg/kg oral): active
- therapeutic efficacy against fleas (active = efficacy ≥80 percent) ([3]; 10 mg/kg subcutaneous): active
- active against fleas up to (efficacy ≥80 percent) ([3]; 10 mg/kg subcutaneous, repeated infestations): 86 D
- duration of efficacy (last Day with efficacy ≥80 percent) (Rhipicephalus microplus; 1 mg/kg subcutaneous): 38 days
- onset of efficacy (first Day with efficacy ≥80 percent) (Rhipicephalus microplus; 1 mg/kg subcutaneous): 2 days
- duration of efficacy (last Day with efficacy ≥80 percent) (Rhipicephalus microplus; [15]): 58 days
- onset of efficacy (first Day with efficacy ≥80 percent) (Rhipicephalus microplus; [15]): 3 days
- inhibition at 100 ppm [4]: 80%
- inhibition at 0.1 µM [5]: ≥ 80%
- inhibition at 1 ppm [6]: 80%
- EC50 [7]: 10 to 25 nM
- inhibition at 25 µM [8]: ≥ 80%
- inhibition at 100 ppm [8]: 80%
- activity against bed bugs (≥80% inhibition, killed+damaged) ([9]; 5 mg/kg oral, Day 0): immediate activity
- activity against bed bugs (≥80% inhibition, killed+damaged) ([9]; 5 mg/kg oral, after 7 days): activity
- activity against bed bugs (≥80% inhibition, killed+damaged) ([9]; 5 mg/kg oral, after 10 days): activity
- activity against bed bugs (≥80% inhibition, killed+damaged) ([9]; 5 mg/kg oral, after 14 days): activity
- activity against bed bugs (≥80% inhibition, killed+damaged) ([9]; 5 mg/kg subcutaneous, Day 0): immediate activity
- activity against bed bugs (≥80% inhibition, killed+damaged) [9, 11]: activity
- activity against bed bugs (≥80% inhibition, killed+damaged) [9, 12]: activity
- activity against bed bugs (≥80% inhibition, killed+damaged) [9, 13]: activity
- activity against bed bugs (≥80% inhibition, killed+damaged) [9, 14]: activity
- effective to control bed bugs ([9]; at least until Day 10, both administration routes (oral, subcutaneous)): 100%
- effective to control bed bugs ([9]; for at least one week, both administration routes): 100%
- efficacy against ticks in dogs (conclusion) ([10]; 10 mg/kg): therapeutic efficacy
- therapeutic efficacy against ticks (active = efficacy ≥80 percent) ([10]; 10 mg/kg oral): active
- therapeutic efficacy against ticks (active = efficacy ≥80 percent) ([10]; 10 mg/kg subcutaneous): active
